Data published in ChEMBL document CHEMBL1201862, “PubChem BioAssay data set” (2004).
Active and inactive are the calls of the source.

Assays:
[1] = molecular target: Beta-galactosidase (Escherichia coli, UniProt Q8VNN2); assay: PubChem AID 485352; assay type: functional
[2] = molecular target: T1, Type-1 angiotensin II receptor (Homo sapiens, UniProt P30556); assay: antagonism of angiotensin II type 1 receptor – cell-based, uHTS hits, selectivity assay for APJ receptor antagonist project, dose response (AID 463214); assay type: functional;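 also: antagonist potency against angiotensin II stimulated AT1 response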
T1 sequence (P30556 whole entry): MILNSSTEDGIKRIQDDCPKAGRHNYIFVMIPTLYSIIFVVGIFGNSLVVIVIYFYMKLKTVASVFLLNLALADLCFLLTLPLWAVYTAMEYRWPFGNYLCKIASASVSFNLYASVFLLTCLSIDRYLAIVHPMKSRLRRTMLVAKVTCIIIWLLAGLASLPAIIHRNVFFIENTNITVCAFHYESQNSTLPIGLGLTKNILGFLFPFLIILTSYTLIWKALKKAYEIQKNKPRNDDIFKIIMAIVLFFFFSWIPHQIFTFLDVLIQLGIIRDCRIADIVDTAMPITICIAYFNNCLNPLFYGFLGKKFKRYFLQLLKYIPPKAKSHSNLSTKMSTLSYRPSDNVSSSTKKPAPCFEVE

[3] = molecular target: T2, Replicative DNA helicase DnaB (Mycobacterium tuberculosis, UniProt P9WMR3); assay: DnaB intein splicing inhibitors, dose response, biochemical, cell-free fluorescence (AID 449749); assay type: functional
T2 sequence (P9WMR3 whole entry): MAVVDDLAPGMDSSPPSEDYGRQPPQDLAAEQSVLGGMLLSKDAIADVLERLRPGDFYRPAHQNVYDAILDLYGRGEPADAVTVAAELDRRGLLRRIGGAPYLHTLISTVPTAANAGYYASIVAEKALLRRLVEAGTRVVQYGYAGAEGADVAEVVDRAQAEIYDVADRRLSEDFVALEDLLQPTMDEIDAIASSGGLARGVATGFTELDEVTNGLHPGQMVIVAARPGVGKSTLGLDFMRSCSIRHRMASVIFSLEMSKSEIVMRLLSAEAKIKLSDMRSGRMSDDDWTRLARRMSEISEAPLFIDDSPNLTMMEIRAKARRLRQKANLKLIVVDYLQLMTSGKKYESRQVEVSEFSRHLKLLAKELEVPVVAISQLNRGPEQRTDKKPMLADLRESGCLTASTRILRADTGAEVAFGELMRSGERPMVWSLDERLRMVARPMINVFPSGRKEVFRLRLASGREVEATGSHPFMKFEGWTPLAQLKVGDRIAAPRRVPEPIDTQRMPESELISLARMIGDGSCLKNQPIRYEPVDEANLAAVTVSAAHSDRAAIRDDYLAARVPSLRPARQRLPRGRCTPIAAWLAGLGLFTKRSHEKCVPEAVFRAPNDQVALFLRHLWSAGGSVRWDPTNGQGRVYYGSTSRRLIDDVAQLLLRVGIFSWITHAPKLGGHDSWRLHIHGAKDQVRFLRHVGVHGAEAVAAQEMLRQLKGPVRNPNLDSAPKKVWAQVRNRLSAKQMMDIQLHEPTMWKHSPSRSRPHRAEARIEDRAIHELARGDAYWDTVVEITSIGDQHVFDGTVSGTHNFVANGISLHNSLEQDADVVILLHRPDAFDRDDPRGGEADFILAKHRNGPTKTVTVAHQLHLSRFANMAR

[4] = molecular target: T3, Protein RecA (Mycobacterium tuberculosis, UniProt P9WHJ3); assay: Fluorescence Cell-Free Homogeneous Dose Retest to Identify Inhibitors of RecA-Intein Splicing Activity. [Related pubchem assays (depositor defined):AID2097, AID2223, AID489010, AID492950]; assay type: functional
T3 sequence (P9WHJ3 whole entry): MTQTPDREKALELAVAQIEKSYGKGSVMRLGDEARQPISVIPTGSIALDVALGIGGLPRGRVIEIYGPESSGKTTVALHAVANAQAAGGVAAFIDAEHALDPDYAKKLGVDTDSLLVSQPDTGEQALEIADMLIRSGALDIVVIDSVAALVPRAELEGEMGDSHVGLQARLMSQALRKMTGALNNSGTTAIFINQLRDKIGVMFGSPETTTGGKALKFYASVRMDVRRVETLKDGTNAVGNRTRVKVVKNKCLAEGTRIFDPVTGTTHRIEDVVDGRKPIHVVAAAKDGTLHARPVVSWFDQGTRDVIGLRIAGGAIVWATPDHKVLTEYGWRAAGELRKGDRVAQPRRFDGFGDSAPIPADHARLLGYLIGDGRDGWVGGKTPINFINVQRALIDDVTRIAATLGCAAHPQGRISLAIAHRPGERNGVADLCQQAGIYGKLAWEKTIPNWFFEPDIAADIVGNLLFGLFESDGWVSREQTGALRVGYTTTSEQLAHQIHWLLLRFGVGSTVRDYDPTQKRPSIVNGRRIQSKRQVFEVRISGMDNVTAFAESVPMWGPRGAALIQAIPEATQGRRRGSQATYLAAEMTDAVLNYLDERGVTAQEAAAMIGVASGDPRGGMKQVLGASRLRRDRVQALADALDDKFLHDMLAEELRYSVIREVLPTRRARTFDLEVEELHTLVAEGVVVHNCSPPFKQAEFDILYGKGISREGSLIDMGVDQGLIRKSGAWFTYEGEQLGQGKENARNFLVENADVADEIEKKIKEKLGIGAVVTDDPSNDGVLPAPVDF

[5] = molecular target: T4, Short transient receptor potential channel 4 (Mus musculus, UniProt Q9QUQ5); assay: block of DAMGO-driven TRPC4 calcium entry – cell-based, HEK293 TRPC4/mu-opioid, Fluo-4 calcium, dose response (AID 434942); assay type: functional;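 also: potency of inhibitors blocking the TRPC4 calcium response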
T4 sequence (Q9QUQ5 whole entry): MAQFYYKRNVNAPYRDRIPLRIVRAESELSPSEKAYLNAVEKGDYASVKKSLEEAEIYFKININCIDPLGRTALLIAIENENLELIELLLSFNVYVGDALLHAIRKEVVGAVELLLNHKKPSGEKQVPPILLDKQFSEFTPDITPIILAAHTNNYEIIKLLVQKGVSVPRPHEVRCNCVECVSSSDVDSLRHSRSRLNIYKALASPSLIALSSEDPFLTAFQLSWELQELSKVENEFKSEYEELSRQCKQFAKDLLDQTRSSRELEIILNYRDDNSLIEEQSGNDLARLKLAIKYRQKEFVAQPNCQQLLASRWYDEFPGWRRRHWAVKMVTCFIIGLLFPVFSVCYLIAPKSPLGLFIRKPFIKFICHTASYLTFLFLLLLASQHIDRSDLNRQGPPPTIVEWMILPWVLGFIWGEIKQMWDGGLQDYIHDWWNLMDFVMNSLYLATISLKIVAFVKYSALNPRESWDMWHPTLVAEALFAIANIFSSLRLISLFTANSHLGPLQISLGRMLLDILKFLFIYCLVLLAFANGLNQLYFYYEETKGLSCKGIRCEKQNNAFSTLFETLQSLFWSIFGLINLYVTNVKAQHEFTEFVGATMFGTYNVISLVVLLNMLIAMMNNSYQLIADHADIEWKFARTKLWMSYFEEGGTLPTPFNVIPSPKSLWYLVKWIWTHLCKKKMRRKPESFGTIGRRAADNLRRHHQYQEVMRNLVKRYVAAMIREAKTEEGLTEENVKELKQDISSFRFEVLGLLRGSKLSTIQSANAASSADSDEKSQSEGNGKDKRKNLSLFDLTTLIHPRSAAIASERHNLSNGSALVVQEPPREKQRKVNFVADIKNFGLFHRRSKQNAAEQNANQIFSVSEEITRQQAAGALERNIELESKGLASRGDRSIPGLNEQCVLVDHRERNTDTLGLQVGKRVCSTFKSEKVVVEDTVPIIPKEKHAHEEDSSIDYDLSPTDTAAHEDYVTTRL

[6] = molecular target: T5, High affinity choline transporter 1 (Homo sapiens, UniProt Q9GZV3); assay: human choline transporter blockers, potency – cell-based, 5-point CRC, membrane potential dye, dose response (AID 504840); assay type: functional
T5 sequence (Q9GZV3 whole entry): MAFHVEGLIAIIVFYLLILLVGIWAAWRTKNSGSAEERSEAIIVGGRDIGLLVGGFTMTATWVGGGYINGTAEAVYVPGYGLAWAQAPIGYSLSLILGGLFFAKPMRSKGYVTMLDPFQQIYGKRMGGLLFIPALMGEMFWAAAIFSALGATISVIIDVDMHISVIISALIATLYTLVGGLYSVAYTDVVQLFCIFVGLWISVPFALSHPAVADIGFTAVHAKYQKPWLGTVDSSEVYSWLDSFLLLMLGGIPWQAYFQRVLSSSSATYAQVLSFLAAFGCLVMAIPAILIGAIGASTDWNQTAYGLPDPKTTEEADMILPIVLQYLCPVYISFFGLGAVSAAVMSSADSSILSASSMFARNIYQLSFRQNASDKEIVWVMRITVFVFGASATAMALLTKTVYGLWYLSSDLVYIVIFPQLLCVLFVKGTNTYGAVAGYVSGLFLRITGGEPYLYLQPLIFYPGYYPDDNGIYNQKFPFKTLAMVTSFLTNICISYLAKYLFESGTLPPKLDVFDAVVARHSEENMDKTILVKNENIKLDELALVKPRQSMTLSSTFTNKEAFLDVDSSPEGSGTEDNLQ

[7] = tested on: Streptococcus; assay: GAS UMAA2166 growth inhibition – luminescence, BacTiterGlo, counter-screen for streptokinase expression inhibitor project, dose response (AID 1915); assay type: functional, organism-based;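 also: potency for reduction of bacterial viability or growth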
[8] = tested on: Streptococcus sp. 'group A'; assay: Streptococcus pyogenes SK(-)GAS viability under kanamycin – luminescence, BacTiterGlo, confirmation, counter-screen for streptokinase expression inhibitor project, dose response (AID 1900); assay type: functional, organism-based
[9] = tested on: Vero; assay: cells; assay type: functional; settings: Chlorocebus sabaeus
[10] = NIH3T3 cell viability loss – ATP luminescence, mouse fibroblasts, counter-screen, dose response (AID 2010); assay type: functional, cell-based;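 also: cells exposed to compound for about 90 hours before reading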
[11] = Trypanosoma cruzi growth suppression in host cells – NIH3T3 host cells, beta-gal luminescence, confirmation (AID 2044); assay type: functional, cell-based;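 also: intracellular parasites grown in NIH/3T3 mouse fibroblasts as host cells; luminescent beta-galactosidase reporter signal from transgenic T. cruzi replicating inside host cells; inhibitors lower the luminescence signal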
[12] = molecular target: T6, Streptokinase A (Streptococcus pyogenes serotype M1, UniProt P10520); assay: viability-normalized secreted streptokinase activity reduction – plasminogen activation absorbance, OD405, dose response (AID 1914); assay type: functional, Streptococcus pyogenes M1 GAS;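 also: secreted streptokinase activity via plasminogen activation per viability signal from cell pellet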
T6 sequence (P10520 whole entry): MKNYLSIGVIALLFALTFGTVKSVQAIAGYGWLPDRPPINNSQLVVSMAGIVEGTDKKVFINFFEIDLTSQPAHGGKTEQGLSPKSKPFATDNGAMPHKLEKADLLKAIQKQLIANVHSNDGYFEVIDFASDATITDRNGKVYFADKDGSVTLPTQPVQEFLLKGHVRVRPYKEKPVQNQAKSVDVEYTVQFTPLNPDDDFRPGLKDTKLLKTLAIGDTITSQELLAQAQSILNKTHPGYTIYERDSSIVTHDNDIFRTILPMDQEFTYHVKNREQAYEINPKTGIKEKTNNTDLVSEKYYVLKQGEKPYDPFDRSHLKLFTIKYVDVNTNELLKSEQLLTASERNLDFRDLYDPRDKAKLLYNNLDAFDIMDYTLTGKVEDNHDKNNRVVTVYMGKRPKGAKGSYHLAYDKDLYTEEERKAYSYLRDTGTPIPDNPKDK

[13] = viability of uninfected HEp-2 cells – cell-based, HTS, cytotoxicity control for RSV inhibitor project, dose response (AID 2410); assay type: functional; settings: human respiratory syncytial virus
[14] = microbe, parasite or virus in culture; assay type: functional; settings: Mycobacterium tuberculosis
[15] = molecular target: T7, Heat shock factor protein 1 (Mus musculus, UniProt P38532); assay: enhancement of HSF1-driven luciferase signal – cell-based, NIH3T3, luminescence, dose retest, confirmation (AID 435004); assay type: functional;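 also: stress induced by proteasome inhibitor MG132 added 30 min after compound; luciferase reporter driven by HSF1 response element in NIH3T3 cells; actives raise luminescence as potentiators of the MG132 stress response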
T7 sequence (P38532 whole entry): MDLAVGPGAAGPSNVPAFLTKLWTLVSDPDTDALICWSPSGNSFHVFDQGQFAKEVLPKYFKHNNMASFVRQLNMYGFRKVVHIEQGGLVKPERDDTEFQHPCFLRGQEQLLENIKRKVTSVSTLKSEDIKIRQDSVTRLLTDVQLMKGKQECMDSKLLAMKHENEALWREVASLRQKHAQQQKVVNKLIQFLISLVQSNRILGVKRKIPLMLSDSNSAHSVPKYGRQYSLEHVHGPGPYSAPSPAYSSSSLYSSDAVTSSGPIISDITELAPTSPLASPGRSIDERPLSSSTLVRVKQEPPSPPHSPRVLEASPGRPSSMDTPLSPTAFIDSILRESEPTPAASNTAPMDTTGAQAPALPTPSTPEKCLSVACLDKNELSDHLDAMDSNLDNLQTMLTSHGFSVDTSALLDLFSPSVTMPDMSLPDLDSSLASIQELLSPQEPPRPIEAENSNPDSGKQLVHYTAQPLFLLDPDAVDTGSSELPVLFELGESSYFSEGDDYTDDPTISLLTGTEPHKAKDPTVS

[16] = molecular target: Nonstructural protein 1 (Influenza A virus, UniProt Q194T2); assay type: functional, Influenza A virus (A/California/07/2009(H1N1))
Sequence of Nonstructural protein 1 (Q194T2 whole entry): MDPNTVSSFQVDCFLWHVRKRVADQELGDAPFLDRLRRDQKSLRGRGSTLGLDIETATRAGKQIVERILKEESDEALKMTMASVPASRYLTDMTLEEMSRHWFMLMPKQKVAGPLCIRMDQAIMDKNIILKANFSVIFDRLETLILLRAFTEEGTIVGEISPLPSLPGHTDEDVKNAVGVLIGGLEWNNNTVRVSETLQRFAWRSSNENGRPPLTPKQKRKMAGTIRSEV

Sequence of Beta-galactosidase (Q8VNN2 whole entry): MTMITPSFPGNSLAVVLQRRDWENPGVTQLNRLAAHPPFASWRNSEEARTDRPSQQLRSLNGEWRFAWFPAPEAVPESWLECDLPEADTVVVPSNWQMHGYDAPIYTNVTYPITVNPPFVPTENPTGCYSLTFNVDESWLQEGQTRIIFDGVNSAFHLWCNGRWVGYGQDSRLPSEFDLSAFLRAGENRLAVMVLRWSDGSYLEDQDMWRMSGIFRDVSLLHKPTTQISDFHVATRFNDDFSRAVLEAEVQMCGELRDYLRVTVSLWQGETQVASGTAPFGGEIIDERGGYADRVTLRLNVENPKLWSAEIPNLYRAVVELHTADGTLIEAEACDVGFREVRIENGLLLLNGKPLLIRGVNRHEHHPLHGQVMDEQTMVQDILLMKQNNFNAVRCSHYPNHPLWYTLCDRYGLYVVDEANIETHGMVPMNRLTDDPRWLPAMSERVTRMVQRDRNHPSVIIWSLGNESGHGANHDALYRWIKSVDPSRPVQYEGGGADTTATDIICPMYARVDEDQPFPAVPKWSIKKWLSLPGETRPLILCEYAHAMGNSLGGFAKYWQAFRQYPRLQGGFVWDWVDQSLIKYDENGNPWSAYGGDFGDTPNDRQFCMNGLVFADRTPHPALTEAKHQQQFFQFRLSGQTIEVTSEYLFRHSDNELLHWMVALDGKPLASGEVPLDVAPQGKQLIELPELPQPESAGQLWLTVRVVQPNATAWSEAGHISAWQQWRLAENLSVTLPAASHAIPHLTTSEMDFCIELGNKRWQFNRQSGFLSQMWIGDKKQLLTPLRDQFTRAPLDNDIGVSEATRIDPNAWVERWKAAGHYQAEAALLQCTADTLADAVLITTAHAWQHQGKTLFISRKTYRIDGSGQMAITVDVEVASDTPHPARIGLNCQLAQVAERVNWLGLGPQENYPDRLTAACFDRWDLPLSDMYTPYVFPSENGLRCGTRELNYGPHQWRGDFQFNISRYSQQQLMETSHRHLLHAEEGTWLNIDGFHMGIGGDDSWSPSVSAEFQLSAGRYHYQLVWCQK

## CC(C)OC(=O)CN1C(=O)C(=O)c2ccccc21
[1]
  EC50: > 40 µM (inactive)
[2]
  IC50: 5.32 µM (active)
[3]
  AC50: 14.3 µM (active)
[4]
  EC50: 8.52 µM (active)

## CN(C)C(CNC(=O)c1oc2ccccc2c1CSc1nc[nH]n1)c1ccco1 (configuration not stated)
[5]
  EC50: 8.41 µM (active)

## NS(=O)(=O)c1ccc(CCNCc2ccccc2OCc2ccc(Cl)cc2)cc1
[6]
  IC50: 11.2 µM (active)
[5]
  EC50: 6.68 µM (active)

## COc1ccc(OC)c(/C=C/c2ccc3cccc(O)c3n2)c1
[7]
  EC50: 10.7 µM (active)
[8]
  EC50: 0.323 µM (active)
[9]
  CC50: 9.5 µM (active)
[10]
  EC50: > 30 µM (not active)
[11]
  EC50: 2.07 µM (active)
[12]
  EC50: > 150 µM (not active)

## Cc1ccc(NC(=O)CNc2ccccc2CN(C)C2CCCCC2)cc1
[5]
  EC50: 2.99 µM (active)

## C=CCSc1nc2c(c(=O)[nH]c(=O)n2C)n1C/C=C(/C)Cl
[13]
  CC50: 37.2 µM (active)
[5]
  EC50: 2.37 µM (active)

## CCN(CC)S(=O)(=O)c1ccc2oc(SCC(=O)Nc3cc(C)on3)nc2c1
[14]
  CC50: 11.6 µM (active)
[1]
  EC50: > 40 µM (inactive)
[10]
  EC50: 5.9 µM (active)
[2]
  IC50: > 40 µM (not active)
[11]
  EC50: > 30 µM (not active)

## CCc1cc2c(=O)[nH]c(-c3ccccn3)nc2s1
[15]
  EC50: 12.9 µM (active)
[1]
  EC50: > 40 µM (inactive)
[2]
  IC50: 2.91 µM (active)
[16]
  IC50: 14.3 µM (active)

## Cn1cccc1/C=C(/C#N)C(N)=S
[1]
  EC50: > 40 µM (inactive)
[2]
  IC50: > 40 µM (not active)
